In assay [1] the target is Delta-type opioid receptor (Rattus norvegicus, UniProt P33533). Kind of assay: Inhibition of [3H]DSLET binding to rat brain membrane Opioid receptor delta 1.
The target of assay [2] is T1, Mu-type opioid receptor (Rattus norvegicus, UniProt P33535). Kind of assay: Binding affinity towards Opioid receptor mu 1 in rat brain membrane using [3H]DAGO as radioligand. In kind it is cell membranes.
The target in assay [3] is T2, Mu-type opioid receptor (Cavia porcellus, UniProt P97266). Kind of assay: Inhibitory activity towards Opioid receptor mu 1 using guinea pig ileum (GPI) assay was determined for the compound. It counts as tissue-based.
Assay [4] has as its target Delta-type opioid receptor (Mus musculus, UniProt P32300). The experiment in a line: Inhibitory activity towards electrically induced contractions in mouse vas deferens expressing delta opioid receptor. It counts as functional, tissue-based.
Assay [5] has as its target T2, Mu-type opioid receptor. Kind of assay: Inhibitory activity towards electrically induced contractions in guinea pig ileum expressing Opioid receptor mu 1. It counts as tissue-based.
Assay [6] deals with T2, Mu-type opioid receptor. The experiment in a line: Inhibitory activity towards electrically induced contractions in guinea pig ileum expressing mu opioid receptor. In kind it is tissue-based.
For assay [7], the target named is T1, Mu-type opioid receptor. Kind of assay: Binding affinity towards mu Opioid receptor in rat brain membrane using [3H]DAGO as radioligand. It counts as cell membranes.

Each structure is given as a SMILES string. Bridge positions count the residues as written; N and C are the ends. Square brackets hold non-standard residues; d marks the D form. Peptide text beside a SMILES is read from it. Orn = NCCC[C@H](N)C(=O)O

T1 sequence (P33535 whole entry): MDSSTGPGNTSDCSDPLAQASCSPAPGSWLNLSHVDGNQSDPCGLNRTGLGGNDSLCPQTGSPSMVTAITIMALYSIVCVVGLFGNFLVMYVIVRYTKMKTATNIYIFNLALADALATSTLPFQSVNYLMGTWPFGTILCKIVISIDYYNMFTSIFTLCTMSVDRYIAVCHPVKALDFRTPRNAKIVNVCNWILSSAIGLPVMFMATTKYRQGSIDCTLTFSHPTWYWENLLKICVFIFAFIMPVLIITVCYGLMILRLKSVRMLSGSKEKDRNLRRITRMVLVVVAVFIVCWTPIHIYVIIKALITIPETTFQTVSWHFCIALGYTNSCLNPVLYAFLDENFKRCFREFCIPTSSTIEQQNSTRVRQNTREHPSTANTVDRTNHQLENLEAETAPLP
Delta-type opioid receptor (Mus musculus, UniProt P32300), sequence (P32300 whole entry): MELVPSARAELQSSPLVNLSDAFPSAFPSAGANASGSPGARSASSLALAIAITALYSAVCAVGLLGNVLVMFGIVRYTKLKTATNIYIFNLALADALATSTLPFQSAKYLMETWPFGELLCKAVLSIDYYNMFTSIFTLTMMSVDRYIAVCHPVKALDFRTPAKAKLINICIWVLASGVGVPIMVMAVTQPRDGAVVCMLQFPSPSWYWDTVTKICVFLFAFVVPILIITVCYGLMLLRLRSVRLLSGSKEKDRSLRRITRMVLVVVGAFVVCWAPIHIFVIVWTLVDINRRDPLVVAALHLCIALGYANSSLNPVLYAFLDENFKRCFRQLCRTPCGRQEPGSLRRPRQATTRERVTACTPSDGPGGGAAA
T2 sequence (P97266 whole entry): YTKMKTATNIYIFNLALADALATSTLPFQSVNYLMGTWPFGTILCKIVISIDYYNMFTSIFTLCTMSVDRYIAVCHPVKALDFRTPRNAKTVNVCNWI
Delta-type opioid receptor (Rattus norvegicus, UniProt P33533), sequence (P33533 whole entry): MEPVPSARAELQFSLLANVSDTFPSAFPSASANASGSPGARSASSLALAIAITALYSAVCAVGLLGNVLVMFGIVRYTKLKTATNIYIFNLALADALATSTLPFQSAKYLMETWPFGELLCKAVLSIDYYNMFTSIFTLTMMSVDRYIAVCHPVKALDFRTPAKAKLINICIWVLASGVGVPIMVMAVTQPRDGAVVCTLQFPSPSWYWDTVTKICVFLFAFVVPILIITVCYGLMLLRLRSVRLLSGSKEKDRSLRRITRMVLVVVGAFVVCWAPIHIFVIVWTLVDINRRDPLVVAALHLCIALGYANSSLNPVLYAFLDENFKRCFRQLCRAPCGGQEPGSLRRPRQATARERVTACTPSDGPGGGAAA

Consider `NC(=O)[C@@H]1CSSC[C@@H](NC(=O)[C@@H](N)Cc2ccc(O)cc2)C(=O)N[C@@H](Cc2ccccc2)C(=O)N1`, for which the Ki stood at 0.373 µM in assay [1] and 0.011 µM at Mu-type opioid receptor [2]. The midpoint of inhibition against Mu-type opioid receptor [3], the IC50, lay at 0.0647 µM.
For `NC(=O)[C@@H]1CC(=O)NCCC[C@@H](NC(=O)[C@@H](N)Cc2ccc(O)cc2)C(=O)N[C@@H](Cc2ccc([N+](=O)[O-])cc2)C(=O)N1`, the IC50 in assay [4] is above 100 µM; at Mu-type opioid receptor [5], 2.34 µM. Moreover, the Ki was found to be 5.06 µM in assay [1] and 0.273 µM on Mu-type opioid receptor [2].
`NC(=O)[C@H]1CC(=O)NCCC[C@@H](NC(=O)[C@@H](N)Cc2ccc(O)cc2)C(=O)N[C@@H](Cc2ccccc2)C(=O)N1`: the IC50 in assay [4] stood at 4.81 µM; at Mu-type opioid receptor [5], 0.632 µM. Also, the results for the Ki (in assay [1]; at Mu-type opioid receptor [2]) were 0.422 µM and 0.0217 µM, respectively.
On the same counts, the results for `CN1C(=O)[C@H](NC(=O)[C@@H](N)Cc2ccc(O)cc2)CCCNC(=O)C[C@@H](C(N)=O)NC(=O)[C@@H]1Cc1ccccc1` are 1.38 µM, 6.46 µM, 28.1 µM and 3.57 µM.
Consider `NC(=O)[C@@H]1CCNC(=O)C[C@@H](NC(=O)[C@@H](N)Cc2ccc(O)cc2)C(=O)N[C@@H](Cc2ccccc2)C(=O)N1`, for which the concentration for half-maximal inhibition (IC50) is 2.03 µM in assay [4] and 0.279 µM against Mu-type opioid receptor [5]. Moreover, the Ki in assay [1] worked out at 4.17 µM; on Mu-type opioid receptor [2], 0.0248 µM.
As for `NC(=O)[C@@H]1CC(=O)NCCC[C@@H](NC(=O)[C@@H](N)Cc2ccc(O)cc2)C(=O)N[C@@H](Cc2ccccc2)C(=O)N1`, the IC50 in assay [4] is 3.88 µM; against Mu-type opioid receptor [6] it was 0.0362 µM. In addition, the Ki worked out at 2.22 µM in assay [1] and 0.0104 µM on Mu-type opioid receptor [2].
Regarding `NC(=O)[C@@H]1CC(=O)NCCC[C@@H](NC(=O)[C@@H](N)Cc2ccc(O)cc2)C(=O)N[C@H](Cc2ccccc2)C(=O)N1`, the results for the IC50 (in assay [4]; on Mu-type opioid receptor [5]) were above 8.64 µM and above 21 µM, respectively. The values for the Ki (in assay [1]; at Mu-type opioid receptor [2]) were above 380 µM and 3.04 µM, respectively.
Turning to `NC(=O)[C@@H]1CC(=O)NCCC[C@H](NC(=O)[C@@H](N)Cc2ccc(O)cc2)C(=O)N[C@@H](Cc2ccccc2)C(=O)N1`, the IC50 in assay [4] is above 100 µM; on Mu-type opioid receptor [5], 16.8 µM. The Ki in assay [1] is above 60 µM; on Mu-type opioid receptor [7], 4.83 µM.
Regarding `NC(=O)[C@@H]1CC(=O)NCCC[C@@H](NC(=O)[C@@H](N)Cc2ccc(O)cc2)C(=O)N[C@@H](CCc2ccccc2)C(=O)N1`, the IC50 in assay [4] amounted to 1.37 µM; on Mu-type opioid receptor [5], 0.111 µM. Further, the Ki stood at 0.849 µM in assay [1] and 0.0119 µM at Mu-type opioid receptor [2].
In the case of `NC(=O)[C@@H]1CC(=O)NCCC[C@@H](NC(=O)[C@@H](N)Cc2ccc(O)cc2)C(=O)N[C@@H](C2CCCCC2)C(=O)N1`, the IC50 was 1.66 µM in assay [4] and 18.4 µM on Mu-type opioid receptor [5]. Also, the inhibitory constant (Ki) in assay [1] was 3.57 µM; at Mu-type opioid receptor [7] it was 0.445 µM.
Consider `NC(=O)[C@@H]1CCCNC(=O)C[C@@H](NC(=O)[C@@H](N)Cc2ccc(O)cc2)C(=O)N[C@@H](Cc2ccccc2)C(=O)N1` (H-Y[dD]F[Orn]-NH2; lactam 2-4), for which the IC50 in assay [4] was 8.57 µM; against Mu-type opioid receptor [5] it was 0.522 µM. In addition, the Ki in assay [1] turned out to be 1.32 µM; on Mu-type opioid receptor [2], 0.00955 µM.

One may read the Ki as a measure of affinity in units of concentration, obtained from inhibition or displacement. A higher Ki goes with lower affinity. The IC50 is the point on the concentration scale where inhibition reaches its midpoint. The low end stands for higher potency, the high end for lower potency.

Source of the values: ChEMBL document CHEMBL1123894, “Structure-activity relationships of cyclic opioid peptide analogues containing a phenylalanine residue in the 3-position” (J Med Chem, 1987).
